According to publication PMC2731040 (BMC Clinical Pharmacology, 2009):

What was measured:
Assay type in all cases: in vivo, human
[1] = test system: nondependent cocaine-experienced subjects; test: Physiologic measures during cocaine challenge sessions; settings: for Systolic Blood Pressure, Peak change: Mean ± SD, 12 subjects
Protocol: Heart rate, systolic and diastolic blood pressure were measured using a cardiovascular monitor (Dinamap by Critikon, Vital Signs Monitor 1846 SX). Rate pressure product was calculated as the product of systolic blood pressure and heart rate. Respiration rate was measured by counting the number of inhalations per minute. These vital signs were determined with the patient in a supine position for at least 10 minutes.
(§1) Heart rate, blood pressure, respiration rate, skin and core temperature were recorded at specific times during the study. During infusions, measures were obtained pre-dose and at 0.17, 0.5, 0.75, 1, 1.5, 2, 2.5, 3, 3.5, 4, 4.25, 4.5, 5, 6, 8, 12, 18, 24, 36, 48, and 72 hours after dosing. The electrocardiogram was monitored continuously during the infusion and for 4 hours after the termination of the intravenous cocaine infusion. EKG tracings were recorded at each data collection point.
(§2) The time courses of physiologic and subjective data were analyzed by repeated measures analysis of variance (ANOVA). Treatment conditions (Sessions 1 and 2) and observation times (hours post-dose) were considered within-subject factors. Change scores (post-dose minus pre-dose values) were used in most analyses. Raw score were used where indicated. After a significant F test, pairwise comparisons of treatment conditions were performed using the least squares means analysis. Peak effects within a session were determined for each subject and each variable and analyzed using a one-factor repeated measures ANOVA. Effects were considered statistically significant at p = 0.05. Data were adjusted for sphericity using the Huynh-Feldt adjustment factor. Huynh-Feldt-corrected significance values are reported.

[2] = test system: nondependent cocaine-experienced subjects; test: Adverse events and cardiovascular safety monitoring
Protocol: as §1

[3] = test system: nondependent cocaine-experienced subjects; test: Subjective measures (verbal ratings, visual analog scales, POMS) during cocaine challenge sessions; settings: for Cocaine Craving (0–100), Peak change / Global Intoxication (0–100), Peak change: verbal rating; for Bad Drug Effect (0–100), Peak change / Good Drug Effect (0–100), Peak change: visual analog scale
Source text: Verbal ratings of global intoxication and craving (on a scale of 0 to 100) were obtained at the same time points as the physiologic measures, with 0 representing no drug effect and 100 representing the highest level of intoxication or craving.
Visual analog scales were used to rate the degree of drug liking by moving an arrow along a 10 cm line marked at opposite ends as 0 (not at all) and 100 (extreme) using a hand-held computer (Tandy 102). Items rated on the visual analog scale included "good drug effect" and "bad drug effect," and were obtained prior to cocaine infusion and at 0.17, 0.5, 0.75, 1, 1.5, 2, 2.5, 3, 3.5, 4, 4.25, 4.5, 5, 6, and 8 hours after dosing.
The Profile of Mood States (POMS) assessed mood changes in Anger, Confusion, Fatigue, Tension, and Vigor on a scale from 0 to 4, where 0 indicated "no effect" and 4 indicates "extremely strong". Ratings were obtained prior to cocaine infusion and at 1, 3, and 6 hours after dosing.
as §2

[4] = Session 1: first cocaine infusion, before selegiline
[5] = Session 2: second cocaine infusion, after one week of selegiline STS
[6] = both cocaine challenge sessions, p < 0.01

For `COC(=O)[C@H]1[C@@H](OC(=O)c2ccccc2)C[C@@H]2CC[C@H]1N2C` [Cocaine, cocaine], the “Core Temperature, Peak Time” value [1, 4] was 4.5 ± 1.6 Hr Postdose, the “Core Temperature, Peak change” value [1, 4] was 0.7 ± 0.2 °C and the “Diastolic Blood Pressure, Peak Time” value [1, 4] was 2.8 ± 2.4 Hr Postdose. For the same compound, the “Diastolic Blood Pressure, Peak change” value [1, 4] was 10 ± 5 mmHg, the “Heart Rate, Peak Time” value [1, 4] was 0.8 ± 0.9 Hr Postdose and the “Heart Rate, Peak change” value [1, 4] was 26 ± 10 beats/min. The “Rate Pressure Product, Peak Time” value [1, 4] was 1.4 ± 1.5 Hr Postdose, the “Rate Pressure Product, Peak change” value [1, 4] was 4224 ± 1638 SBP*HR and the “Respiration Rate, Peak Time” value [1, 4] was 0.9 ± 1.3 Hr Postdose. For the same compound, the “Respiration Rate, Peak change” value [1, 4] was 3.8 ± 4.0 inhal/min, the “Skin Temperature, Peak Time” value [1, 4] was 0.8 ± 0.4 Hr Postdose and the “Skin Temperature, Peak change” value [1, 4] was -5.4 ± 2.7 °C. For the same compound, the “Systolic Blood Pressure, Peak Time” value [1, 4] was 2.2 ± 1.9 Hr Postdose, the “Systolic Blood Pressure, Peak change” value ([1]; Session 1: first cocaine infusion, day 1, before selegiline) was 17 ± 8 mmHg and the “Core Temperature, Peak Time” value [1, 5] was 4.2 ± 1.9 Hr Postdose. For the same compound, the “Core Temperature, Peak change” value [1, 5] was 0.7 ± 0.5 °C, the “Diastolic Blood Pressure, Peak Time” value [1, 5] was 2 ± 2 Hr Postdose and the “Diastolic Blood Pressure, Peak change” value [1, 5] was 12 ± 6 mmHg. The “Heart Rate, Peak Time” value [1, 5] was 0.9 ± 1.7 Hr Postdose, the “Heart Rate, Peak change” value [1, 5] was 27 ± 12 beats/min and the “Rate Pressure Product, Peak Time” value [1, 5] was 0.9 ± 1.6 Hr Postdose. The “Rate Pressure Product, Peak change” value [1, 5] was 4437 ± 2333 SBP*HR, the “Respiration Rate, Peak Time” value [1, 5] was 0.4 ± 0.3 Hr Postdose and the “Respiration Rate, Peak change” value [1, 5] was 3.8 ± 3.6 inhal/min. The “Skin Temperature, Peak Time” value [1, 5] was 1.0 ± 1.2 Hr Postdose, the “Skin Temperature, Peak change” value [1, 5] was -5 ± 3.2 °C and the “Systolic Blood Pressure, Peak Time” value [1, 5] was 1.9 ± 1.7 Hr Postdose. For the same compound, the “Systolic Blood Pressure, Peak change” value ([1]; Session 2: second cocaine infusion, day 11, after one week of selegiline STS patch 6 mg/24 hours) was 17 ± 9 mmHg, the “Skin temperature compared to baseline” value [1, 6] was “decreased significantly” and the “Systolic blood pressure, heart rate, and rate pressure product compared to baseline” value [1, 6] was “increased significantly”. The “Diastolic blood pressure, respiration rate, and core temperature” value ([1]; cocaine either alone or with selegiline) was “did not alter”, the Adverse events ([2]; STS 6 mg/24 hours, cocaine-d5 IV 2.5 mg/kg over 4 hours) was “One subject vomited” and the “Adverse effects of cocaine following selegiline administration” value ([2]; cocaine infusion after one week of STS) was “No significant adverse effects”. For the same compound, the “Bad Drug Effect, Peak Time” value [3, 4] was 1.9 ± 2.3 Hr Postdose, the “Cocaine Craving, Peak Time” value [3, 4] was 1.1 ± 1.3 Hr Postdose and the “Global Intoxication, Peak Time” value [3, 4] was 0.7 ± 1 Hr Postdose. The “Good Drug Effect, Peak Time” value [3, 4] was 0.9 ± 1.5 Hr Postdose, the “POMS Anger (0–28), Peak change” value [3, 4] was 2.8 ± 6.4 and the “POMS Anger, Peak Time” value [3, 4] was 6 ± 0 Hr Postdose. For the same compound, the “POMS Confusion (0–20), Peak change” value [3, 4] was 2.5 ± 2.8, the “POMS Confusion, Peak Time” value [3, 4] was 6 ± 0 Hr Postdose and the “POMS Depression (0–64), Peak change” value [3, 4] was 3 ± 6.5. For the same compound, the “POMS Depression, Peak Time” value [3, 4] was 3 ± 0 Hr Postdose, the “POMS Fatigue (0–28), Peak change” value [3, 4] was 5.9 ± 5.9 and the “POMS Fatigue, Peak Time” value [3, 4] was 6 ± 0 Hr Postdose. The “POMS Tension (0–28), Peak change” value [3, 4] was 7.5 ± 6.1, the “POMS Tension, Peak Time” value [3, 4] was 1 ± 0 Hr Postdose and the “POMS Vigor (0–32), Peak change” value [3, 4] was -3.6 ± 3.4. For the same compound, the “POMS Vigor, Peak Time” value [3, 4] was 6 ± 0 Hr Postdose, the “Cocaine Craving (0–100), Peak change” value [3, 4] was 33 ± 25 and the “Global Intoxication (0–100), Peak change” value [3, 4] was 57 ± 27. For the same compound, the “Bad Drug Effect (0–100), Peak change” value [3, 4] was 46 ± 31, the “Good Drug Effect (0–100), Peak change” value [3, 4] was 66 ± 23 and the “Bad Drug Effect, Peak Time” value [3, 5] was 1.4 ± 1.9 Hr Postdose. The “Cocaine Craving, Peak Time” value [3, 5] was 0.6 ± 0.7 Hr Postdose, the “Global Intoxication, Peak Time” value [3, 5] was 0.6 ± 0.9 Hr Postdose and the “Good Drug Effect, Peak Time” value [3, 5] was 1 ± 1.3 Hr Postdose. For the same compound, the “POMS Anger, Peak Time” value [3, 5] was 6 ± 0 Hr Postdose, the “POMS Confusion (0–20), Peak change” value [3, 5] was 2.7 ± 4.7 and the “POMS Confusion, Peak Time” value [3, 5] was 3 ± 0 Hr Postdose. For the same compound, the “POMS Depression (0–64), Peak change” value [3, 5] was 1.5 ± 2.4, the “POMS Depression, Peak Time” value [3, 5] was 3 ± 0 Hr Postdose and the “POMS Fatigue (0–28), Peak change” value [3, 5] was 2.8 ± 5.3. The “POMS Fatigue, Peak Time” value [3, 5] was 6 ± 0 Hr Postdose, the “POMS Tension (0–28), Peak change” value [3, 5] was 4.8 ± 3.9 and the “POMS Tension, Peak Time” value [3, 5] was 1 ± 0 Hr Postdose. The “POMS Vigor (0–32), Peak change” value [3, 5] was -3.9 ± 6.1, the “POMS Vigor, Peak Time” value [3, 5] was 6 ± 0 Hr Postdose and the “POMS Anger (0–28), Peak change” value ([3]; Session 2: second cocaine infusion, after one week of selegiline STS, significantly different from Session 1 (p < 0.03)) was -2.1 ± 5.7. For the same compound, the “Cocaine Craving (0–100), Peak change” value [3, 5] was 20 ± 21, the “Global Intoxication (0–100), Peak change” value [3, 5] was 53 ± 23 and the “Bad Drug Effect (0–100), Peak change” value [3, 5] was 55 ± 25. The “Good Drug Effect (0–100), Peak change” value [3, 5] was 60 ± 21 and the “Global intoxication, verbal ratings of craving, and good drug effect compared to baseline” value ([3]; both cocaine challenge sessions) was “increased”.
